In patent US20230085307A1, “PYRIDAZINONE COMPOUND AND HERBICIDE” (NISSAN CHEMICAL CORPORATION, priority 2019, published 2023):

How the values were obtained:
late watergrass = experiment: Test Example 1: herbicidal activity, application before weed generation under submerged conditions (Table 16, symbol A); assay type: in vivo, late watergrass (Echinochloa oryzicola); settings: 320 g/ha applied herbicide
Method in brief: (§1)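 Submerged Wagner pots (alluvial soil, 4 cm water) sown with weed seeds and planted with 2.5-leaf rice seedlings; emulsifiable concentrate diluted in water applied to water surface on sowing day. Held in greenhouse at 25-30 °C; injury scored 0-5 by herbicidal rate after three weeks.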

Japanese bulrush = experiment: Test Example 1: herbicidal activity, application before weed generation under submerged conditions (Table 16, symbol B); assay type: in vivo, Japanese bulrush (Schoenoplectus juncoides); settings: 320 g/ha applied herbicide
Method in brief: as §1

oval-leafed pondweed = experiment: Test Example 1: herbicidal activity, application before weed generation under submerged conditions (Table 16, symbol C); assay type: in vivo, oval-leafed pondweed (Monochoria vaginalis); settings: 320 g/ha applied herbicide
Method in brief: as §1

barnyard grass [1] = experiment: Test Example 3: herbicidal effect by foliage application, Wagner pot (Table 18, symbol H); assay type: in vivo, barnyard grass (Echinochloa crus-galli); settings: amount of applied herbicide 320 g/ha
Method in brief: (§2)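 Plants were sown in alluvial soil held under 0.1–0.5 cm standing water and grown 14 days in a greenhouse at 25–30 °C. An emulsifiable formulation, water-diluted to the set dose, was then sprayed onto the foliage, and effects were scored three weeks later using previously defined criteria.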

Chinese sprangletop = experiment: Test Example 3: herbicidal effect by foliage application, Wagner pot (Table 18, symbol D); assay type: in vivo, chinese sprangletop (Leptochloa chinensis); settings: amount of applied herbicide 320 g/ha
Method in brief: as §2

rice flat sedge = experiment: Test Example 3: herbicidal effect by foliage application, Wagner pot (Table 18, symbol E); assay type: in vivo, rice flat sedge (Cyperus iria); settings: amount of applied herbicide 320 g/ha
Method in brief: as §2

southern crabgrass [2] = experiment: Test Example 4: herbicidal effect by soil treatment (Table 19, symbol F); assay type: in vivo, southern crabgrass (Digitaria ciliaris); settings: amount of applied herbicide 320 g/ha
Method in brief: (§3)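 Emulsion of test compound, water-diluted to predetermined amount, sprayed on soil after sowing (seed depth ~1.5 cm, sterilized diluvial soil). Greenhouse, 25–30° C. Effect graded at three weeks post-spray.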

green foxtail [3] = experiment: Test Example 4: herbicidal effect by soil treatment (Table 19, symbol G); assay type: in vivo, green foxtail (Setaria viridis); settings: amount of applied herbicide 320 g/ha
Method in brief: as §3

barnyard grass [4] = experiment: Test Example 4: herbicidal effect by soil treatment (Table 19, symbol H); assay type: in vivo, barnyard grass (Echinochloa crus-galli); settings: amount of applied herbicide 320 g/ha
Method in brief: as §3

wild oat [5] = experiment: Test Example 4: herbicidal effect by soil treatment (Table 19, symbol I); assay type: in vivo, wild oat (Avena fatua); settings: amount of applied herbicide 320 g/ha
Method in brief: as §3

blackgrass [6] = experiment: Test Example 4: herbicidal effect by soil treatment (Table 19, symbol J); assay type: in vivo, blackgrass (Alopecurus myosuroides); settings: amount of applied herbicide 320 g/ha
Method in brief: as §3

Italian ryegrass [7] = experiment: Test Example 4: herbicidal effect by soil treatment (Table 19, symbol K); assay type: in vivo, Italian ryegrass (Lolium multiflorum); settings: amount of applied herbicide 320 g/ha
Method in brief: as §3

windgrass [8] = experiment: Test Example 4: herbicidal effect by soil treatment (Table 19, symbol L); assay type: in vivo, windgrass (Apera spica-venti); settings: amount of applied herbicide 320 g/ha
Method in brief: as §3

velvetleaf [9] = experiment: Test Example 4: herbicidal effect by soil treatment (Table 19, symbol M); assay type: in vivo, velvetleaf (Abutilon theophrasti); settings: amount of applied herbicide 320 g/ha
Method in brief: as §3

redroot pigweed [10] = experiment: Test Example 4: herbicidal effect by soil treatment (Table 19, symbol N); assay type: in vivo, redroot pigweed (Amaranthus retroflexus); settings: amount of applied herbicide 320 g/ha
Method in brief: as §3

lambsquarters [11] = experiment: Test Example 4: herbicidal effect by soil treatment (Table 19, symbol O); assay type: in vivo, lambsquarters (Chenopodium album); settings: amount of applied herbicide 320 g/ha
Method in brief: as §3

chickweed [12] = experiment: Test Example 4: herbicidal effect by soil treatment (Table 19, symbol P); assay type: in vivo, common chickweed (Stellaria media); settings: amount of applied herbicide 320 g/ha
Method in brief: as §3

persian speedwell [13] = experiment: Test Example 4: herbicidal effect by soil treatment (Table 19, symbol R); assay type: in vivo, Persian speedwell (Veronica persica); settings: amount of applied herbicide 320 g/ha
Method in brief: as §3

southern crabgrass [14] = experiment: Test Example 5: herbicidal effect by foliage application, plastic box (Table 20, symbol F); assay type: in vivo, southern crabgrass (Digitaria ciliaris); settings: foliage application, 320 g/ha, evaluated three weeks after application
Method in brief: (§4)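 Post-emergence foliar test in sterilized diluvial soil. Compound applied as water-diluted emulsion at a predetermined rate to 14-day-old plants; evaluation at three weeks.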

green foxtail [15] = experiment: Test Example 5: herbicidal effect by foliage application, plastic box (Table 20, symbol G); assay type: in vivo, green foxtail (Setaria viridis); settings: foliage application, 320 g/ha, evaluated three weeks after application
Method in brief: as §4

barnyard grass [16] = experiment: Test Example 5: herbicidal effect by foliage application, plastic box (Table 20, symbol H); assay type: in vivo, barnyard grass (Echinochloa crus-galli); settings: foliage application, 320 g/ha, evaluated three weeks after application
Method in brief: as §4

wild oat [17] = experiment: Test Example 5: herbicidal effect by foliage application, plastic box (Table 20, symbol I); assay type: in vivo, wild oat (Avena fatua); settings: foliage application, 320 g/ha, evaluated three weeks after application
Method in brief: as §4

blackgrass [18] = experiment: Test Example 5: herbicidal effect by foliage application, plastic box (Table 20, symbol J); assay type: in vivo, blackgrass (Alopecurus myosuroides); settings: foliage application, 320 g/ha, evaluated three weeks after application
Method in brief: as §4

Italian ryegrass [19] = experiment: Test Example 5: herbicidal effect by foliage application, plastic box (Table 20, symbol K); assay type: in vivo, Italian ryegrass (Lolium multiflorum); settings: foliage application, 320 g/ha, evaluated three weeks after application
Method in brief: as §4

windgrass [20] = experiment: Test Example 5: herbicidal effect by foliage application, plastic box (Table 20, symbol L); assay type: in vivo, windgrass (Apera spica-venti); settings: foliage application, 320 g/ha, evaluated three weeks after application
Method in brief: as §4

velvetleaf [21] = experiment: Test Example 5: herbicidal effect by foliage application, plastic box (Table 20, symbol M); assay type: in vivo, velvetleaf (Abutilon theophrasti); settings: foliage application, 320 g/ha, evaluated three weeks after application
Method in brief: as §4

redroot pigweed [22] = experiment: Test Example 5: herbicidal effect by foliage application, plastic box (Table 20, symbol N); assay type: in vivo, redroot pigweed (Amaranthus retroflexus); settings: foliage application, 320 g/ha, evaluated three weeks after application
Method in brief: as §4

lambsquarters [23] = experiment: Test Example 5: herbicidal effect by foliage application, plastic box (Table 20, symbol O); assay type: in vivo, lambsquarters (Chenopodium album); settings: foliage application, 320 g/ha, evaluated three weeks after application
Method in brief: as §4

chickweed [24] = experiment: Test Example 5: herbicidal effect by foliage application, plastic box (Table 20, symbol P); assay type: in vivo, common chickweed (Stellaria media); settings: foliage application, 320 g/ha, evaluated three weeks after application
Method in brief: as §4

persian speedwell [25] = experiment: Test Example 5: herbicidal effect by foliage application, plastic box (Table 20, symbol R); assay type: in vivo, Persian speedwell (Veronica persica); settings: foliage application, 320 g/ha, evaluated three weeks after application
Method in brief: as §4

With CCCC(=O)Oc1c(C)nn(C)c(=O)c1-c1c(-c2ccccc2F)sc2ccc(F)cc12 [2-200] the “Herbicidal effect on A: late watergrass (grade 0-5)” value (late watergrass) was 3 (Herbicidal rate of 40% or more and less than 70%), the “Herbicidal effect on B: Japanese bulrush (grade 0-5)” value (Japanese bulrush) was 0 (Herbicidal rate of 5% or less (almost no effect)) and the “Herbicidal effect on C: oval-leafed pondweed (grade 0-5)” value (oval-leafed pondweed) was 0 (Herbicidal rate of 5% or less (almost no effect)). The “herbicidal effect on H: barnyard grass” value (barnyard grass [1]) was 4 (Herbicidal rate of 70% or more and less than 90%), the “herbicidal effect on D: Chinese sprangletop” value (Chinese sprangletop) was 5 (Herbicidal rate of 90% or more (almost completely withered)) and the “herbicidal effect on E: rice flat sedge” value (rice flat sedge) was 5 (Herbicidal rate of 90% or more (almost completely withered)). For the same molecule, the “F: southern crabgrass, herbicidal effect rating” value (southern crabgrass [2]) was 1 (Herbicidal rate of 5% or more and less than 20%), the “G: green foxtail, herbicidal effect rating” value (green foxtail [3]) was 1 (Herbicidal rate of 5% or more and less than 20%) and the “H: barnyard grass, herbicidal effect rating” value (barnyard grass [4]) was 3 (Herbicidal rate of 40% or more and less than 70%). For the same molecule, the “I: wild oat, herbicidal effect rating” value (wild oat [5]) was 0 (Herbicidal rate of 5% or less (almost no effect)), the “J: blackgrass, herbicidal effect rating” value (blackgrass [6]) was 0 (Herbicidal rate of 5% or less (almost no effect)) and the “K: Italian ryegrass, herbicidal effect rating” value (Italian ryegrass [7]) was 3 (Herbicidal rate of 40% or more and less than 70%). For the same molecule, the “L: windgrass, herbicidal effect rating” value (windgrass [8]) was 0 (Herbicidal rate of 5% or less (almost no effect)), the “M: velvetleaf, herbicidal effect rating” value (velvetleaf [9]) was 0 (Herbicidal rate of 5% or less (almost no effect)) and the “N: redroot pigweed, herbicidal effect rating” value (redroot pigweed [10]) was 4 (Herbicidal rate of 70% or more and less than 90%). The “O: lambsquarters, herbicidal effect rating” value (lambsquarters [11]) was 4 (Herbicidal rate of 70% or more and less than 90%), the “P: chickweed, herbicidal effect rating” value (chickweed [12]) was 1 (Herbicidal rate of 5% or more and less than 20%) and the “R: persian speedwell, herbicidal effect rating” value (persian speedwell [13]) was 3 (Herbicidal rate of 40% or more and less than 70%). For the same molecule, the “herbicidal effect on F: southern crabgrass (criteria 0-5)” value (southern crabgrass [14]) was 2 (Herbicidal rate of 20% or more and less than 40%), the “herbicidal effect on G: green foxtail (criteria 0-5)” value (green foxtail [15]) was 4 (Herbicidal rate of 70% or more and less than 90%) and the “herbicidal effect on H: barnyard grass (criteria 0-5)” value (barnyard grass [16]) was 3 (Herbicidal rate of 40% or more and less than 70%). The “herbicidal effect on I: wild oat (criteria 0-5)” value (wild oat [17]) was 0 (Herbicidal rate of 5% or less (almost no effect)), the “herbicidal effect on J: blackgrass (criteria 0-5)” value (blackgrass [18]) was 1 (Herbicidal rate of 5% or more and less than 20%) and the “herbicidal effect on K: Italian ryegrass (criteria 0-5)” value (Italian ryegrass [19]) was 4 (Herbicidal rate of 70% or more and less than 90%). The “herbicidal effect on L: windgrass (criteria 0-5)” value (windgrass [20]) was 3 (Herbicidal rate of 40% or more and less than 70%), the “herbicidal effect on M: velvetleaf (criteria 0-5)” value (velvetleaf [21]) was 5 (Herbicidal rate of 90% or more (almost completely withered)) and the “herbicidal effect on N: redroot pigweed (criteria 0-5)” value (redroot pigweed [22]) was 5 (Herbicidal rate of 90% or more (almost completely withered)). The “herbicidal effect on O: lambsquarters (criteria 0-5)” value (lambsquarters [23]) was 3 (Herbicidal rate of 40% or more and less than 70%), the “herbicidal effect on P: chickweed (criteria 0-5)” value (chickweed [24]) was 5 (Herbicidal rate of 90% or more (almost completely withered)) and the “herbicidal effect on R: persian speedwell (criteria 0-5)” value (persian speedwell [25]) was 4 (Herbicidal rate of 70% or more and less than 90%).
